pEC50: −log10 of the molar value.
Legend:
[1] = molecular target: T1, AGTR1 (Homo sapiens, UniProt P30556); test: DiscoveRx β-arrestin2 recruitment assay (enzyme complementation, Pathunter CHO-K1 AGTR1 β-arrestin cell line); format: cell-based; settings: DiscoveRx β-arrestin2 recruitment; for DiscoveRx β-arrestin2 Ymax (%): maximal response
T1 construct: host or cells: Pathunter CHO-K1 AGTR1 β-arrestin cell line (CHO-K1)
T1 sequence (P30556 1-359): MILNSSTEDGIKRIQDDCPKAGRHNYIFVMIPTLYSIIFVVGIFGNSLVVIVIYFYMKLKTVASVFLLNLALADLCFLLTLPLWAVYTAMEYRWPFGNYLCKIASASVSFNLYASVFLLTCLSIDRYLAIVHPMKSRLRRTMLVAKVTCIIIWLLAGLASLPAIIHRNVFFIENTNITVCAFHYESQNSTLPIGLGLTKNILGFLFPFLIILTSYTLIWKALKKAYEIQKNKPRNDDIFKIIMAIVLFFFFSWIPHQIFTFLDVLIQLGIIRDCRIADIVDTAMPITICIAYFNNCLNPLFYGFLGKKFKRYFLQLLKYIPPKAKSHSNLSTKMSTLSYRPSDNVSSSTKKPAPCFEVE
Method in brief: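 CHO-K1 cells expressing AGTR1 with β-arrestin2 enzyme-complementation reporter, plated 14-16 h ahead in 1% serum medium, then exposed to compounds for 90 min at 37° C. Chemiluminescence read after 1 h detection. EC50 (agonist) or IC50 (antagonist) from 4-parameter logistic fit; activity as percentage of All maximal effect.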

[2] = molecular target: T1, AGTR1; test: DiscoveRx IP1 accumulation assay (HTRF), agonist mode, Pathunter CHO-K1 AGTR1 β-arrestin cell line; format: cell-based; settings: for pEC50: read-out: IP-1 EC50
Method in brief: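 Agonist mode in CHO-K1 AGTR1 β-arrestin cells plated 14-16 h before; compounds at varying concentrations for 90 min at 37° C, IP1 accumulation read by HTRF (D2-conjugate and anti-IP1 cryptate, 20 min room temperature). EC50 from 4-parameter logistic fit; activity given as percentage of maximal AII effect.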

[3] = molecular target: T2, hAT1R (Homo sapiens, UniProt P30556); test: BRET β-arrestin2 biosensor assay, higher receptor expression (hAT1R 5 ng/well), HEK293 cells; format: cell-based; settings: for pEC50: High AT1R Expression
T2 sequence (P30556 1-359): T1 sequence (P30556 1-359)

[4] = molecular target: T2, hAT1R; test: cell-based; settings: Low AT1R Expression; for pEC50: read-out: BRET β-Arrestin2 Low AT1R Expression EC50

SMILES | pEC50 [1] | DiscoveRx β-arrestin2 Ymax (%) [1] [%] | IP-1 Ymax (%) [2] [%] | BRET β-Arrestin2 High AT1R Expression Ymax (%) [3] [%] | pEC50 [3] | BRET β-Arrestin2 Low AT1R Expression Ymax (%) [4] [%] | pEC50 [4] | pEC50 [2]
CCCCC1=NC2(CCOC2)C(=O)N1Cc1ccc(-c2cc(-c3ccccc3F)ccc2-c2nnn[nH]2)cc1 (single isomer, unassigned) [Example 148] | 6.99 | 34.8 | 6.1 | 72.8 | 7.04 | 17.7 | 6.85 | –
CCCCC1=NC2(CCOC2)C(=O)N1Cc1ccc(-c2cc(-c3ccccc3F)ccc2-c2nnn[nH]2)cc1 (single isomer, unassigned) [Example 149] | 7.41 | 55.2 | 7.5 | 85.7 | 7.62 | 42.1 | 7.08 | 6.85
CCc1nc2c(C)cc(C)nc2n1Cc1ccc(-c2cc(-c3ccccc3OC(F)(F)F)ccc2-c2nn[nH]n2)cc1 [Example 1] | 7.81 | 44.1 | 18.7 | 86.9 | 8.14 | 61.8 | 7.53 | 7.68
CCc1nc2c(C)cc(C)nc2n1Cc1ccc(-c2cc(-c3ccccc3C(C)C)ccc2-c2nn[nH]n2)cc1 [Example 3] | 7.67 | 22.9 | 29.9 | 79.6 | 7.83 | 30.6 | 7.62 | 4.34
CCc1nc2c(C)cc(C)nc2n1Cc1ccc(-c2cc(-c3ccccc3OC)ccc2-c2nn[nH]n2)cc1 [Example 5] | 7.84 | 30.9 | 15.1 | 76.2 | 7.80 | 22.9 | 7.92 | 7.62
CCc1nc2c(C)cc(C)nc2n1Cc1ccc(-c2cc(-c3ccc(C(=O)N(C)C)cc3)ccc2-c2nn[nH]n2)cc1 [Example 11] | 8.00 | 36.3 | 3.8 | 79.2 | 7.66 | 16.9 | 7.45 | 7.75
CCc1nc2c(C)cc(C)nc2n1Cc1ccc(-c2cc(-c3ccccc3F)ccc2-c2nn[nH]n2)cc1 [Example 19] | 8.12 | 57.9 | 12.2 | 89.8 | 8.62 | 73.7 | 7.92 | 7.56
CCc1nc2c(C)cc(C)nc2n1Cc1ccc(-c2cc(-c3cccnc3OC)ccc2-c2nn[nH]n2)cc1 [Example 24, 2-ethyl-3-((5′-(2-methoxypyridin-3-yl)-2′-(2H-tetrazol-5-yl)-[1,1′-biphenyl]-4-yl)methyl)-5,7-dimethyl-3H-imidazo[4,5-b]pyridine] | 7.87 | 24.1 | 14.5 | 73.1 | 7.87 | 21.6 | 7.86 | 7.68
CCc1nc2c(C)cc(C)nc2n1Cc1ccc(-c2cc(-c3cccc(OC)n3)ccc2-c2nn[nH]n2)cc1 [Example 29] | 8.07 | 29.8 | 12.1 | 82.7 | 7.95 | 42.2 | 7.72 | 7.41
CCc1nc2c(C)cc(C)nc2n1Cc1ccc(-c2cc(-c3ccccc3)ccc2C(=O)O)cc1 [Example 31, 4″-((2-ethyl-5,7-dimethyl-3H-imidazo[4,5-b]pyridin-3-yl)methyl)-[1,1′:3′,1″-terphenyl]-4′-carboxylic acid] | 7.47 | 55.1 | 12.3 | 85.5 | 7.24 | 42.4 | 7.07 | 6.63
CCCCC1=NC2(CCCC2)C(=O)N1Cc1ccc(-c2cc(-c3cncc(C)c3)ccc2-c2nn[nH]n2)cc1 [Example 129] | 7.47 | 12.9 | 2.0 | 40.7 | 6.62 | – | < 5.00 | 6.92

From US12037324B2, “Biarylmethyl heterocycles” (Université de Montréal, priority 2016, dated 2024)
